Experimental data as given in US7786163B2, “Constrained cyano compounds” (Forest Laboratories Holdings Limited (BM), priority 2004, dated 2010).
Where a name gives a salt, the structure may show the parent alone.

What was measured:
Assay type in all cases: biochemical
human DPP-VII = target: T1, human DPP-VII (Homo sapiens, UniProt Q9UHL4); assay: DPP-VII inhibition assay (Lys-Pro AMC), selectivity vs DPP-IV; conditions: selectivity for DPP-IV relative to DPP-VII
T1 construct: The full length cDNAs for human DPP-VII, DPP-VIII, DPP-IX, and FAP were obtained from Open Biosystems; FLAG (N); made in house; host or cells: S9 (Sf9) insect cells, baculovirus (pFastBac, Bac-to-Bac)
Procedure: (§1) Materials. S9 insect cells and Sf-900 II SFM media were from Invitrogen. Anti-FLAG M2 immunoaffinity gel was from Sigma. Gly-Pro-AMC, Lys-Pro AMC, and Ala-Pro AMC were from Enzyme Systems. IC50 calculations were performed by non-linear regression analysis using Prism software (GraphPad).
(§2) Preparation of DPP-VII DPP-VIII DPP-IX, and FAP baculovirus constructs. The full length cDNAs for human DPP-VII, DPP-VIII, DPP-IX, and FAP were obtained from Open Biosystems. The cDNAs were cloned into the pFastBac vector with the addition of an N-terminal FLAG tag on DPP-VII, C-terminal 6× His tags on DPP-VIII and DPP-IX, and an N-terminal 6× His tag on FAP (Sun 2002, Qi 2003, and Chen 2004). Baculovirus was prepared using the Bac-to-Bac Baculovirus Expression System (Invitrogen). The cDNAs in the final baculovirus constructs were sequence verified.
(§3) Baculovirus expression. S9 cells were grown to mid log phase at 27C with shaking at 125 RPM and then adjusted to 2×10E6/ml just prior to baculovirus infection. Infection with DPP-VII, DPP-VIII, DPP-IX, and FAP baculoviral constructs were all performed at an MOI of 4. The infected cells were grown for 48 hours and the cell pellets harvested and frozen until purification. DPP-VII was purified using anti-FLAG immunoaffinity gel according to the manufacturer's instructions. DPP-VIII, DPP-IX, and FAP were purified using a B-PER 6× His Fusion Protein Column Purification Kit from Pierce.
(§4) C50 assay. Recombinant DPPs were diluted in reaction buffer to give fluorescence values of 5000-20000 counts in the “enzyme only wells” 20 min after addition of substrate at 27° C. Reaction buffers were 25 mM (2-(4-Morpholino)-Ethane Sulfonic Acid), pH 5.5 for DPP-VII, 25 mM Tris, pH 8, 1% Triton X-100, 100 mM NaCl for DPP-VIII, and 25 mM Tris pH 8 for DPP-IX and FAP. Test wells in a 96-well microtiter plate contained 88 uL of diluted DPP and 2.5 ul of titrated compound in 50 mM glycine, pH 2.6. “Enzyme only” wells contained 88 uL of diluted DPP and 2.5 ul of glycine buffer. “No enzyme” wells contained 88 uL of reaction buffer without DPP and 2.5 ul of glycine buffer. All assays were done in triplicate. The plate was incubated at 27° C. for 10 min and then cooled on ice for 10 min. Ten microliters of substrate diluted in reaction buffer (40 uM final concentration) without Triton or NaCl were then added to all wells followed by incubation at 27C for 20 min. Substrates were Lys-Pro AMC for DPP-VII, and Ala-Pro AMC for DPP-VIII, DPP-IX, and FAP. Fluorescence in each well was measured at settings of 380/460 nm.
(§5) Compounds of the invention were tested for inhibition of DPP-IV according to Example 4 and DPP-VII, VIII, IX and FAP according to the present methods.

human DPP-VIII = target: T2, human DPP-VIII (Homo sapiens, UniProt Q6V1X1); assay: DPP-VIII inhibition assay (Ala-Pro AMC), selectivity vs DPP-IV; conditions: selectivity for DPP-IV relative to DPP-VIII
T2 construct: The full length cDNAs for human DPP-VII, DPP-VIII, DPP-IX, and FAP were obtained from Open Biosystems; 6xHis (C); made in house; host or cells: S9 (Sf9) insect cells, baculovirus (pFastBac, Bac-to-Bac)
Procedure: as §1, §2, §3, §4, §5

human DPP-IX = target: T3, human DPP-IX (Homo sapiens, UniProt Q86TI2); assay: DPP-IX inhibition assay (Ala-Pro AMC), selectivity vs DPP-IV; conditions: selectivity for DPP-IV relative to DPP-IX
T3 construct: The full length cDNAs for human DPP-VII, DPP-VIII, DPP-IX, and FAP were obtained from Open Biosystems; 6xHis (C); made in house; host or cells: S9 (Sf9) insect cells, baculovirus (pFastBac, Bac-to-Bac)
Procedure: as §1, §2, §3, §4, §5

human FAP = target: T4, human FAP (Homo sapiens, UniProt Q12884); assay: FAP inhibition assay (Ala-Pro AMC), selectivity vs DPP-IV; conditions: selectivity for DPP-IV relative to FAP
T4 construct: The full length cDNAs for human DPP-VII, DPP-VIII, DPP-IX, and FAP were obtained from Open Biosystems; 6xHis (N); made in house; host or cells: S9 (Sf9) insect cells, baculovirus (pFastBac, Bac-to-Bac)
T4 sequence (Q12884 1-760): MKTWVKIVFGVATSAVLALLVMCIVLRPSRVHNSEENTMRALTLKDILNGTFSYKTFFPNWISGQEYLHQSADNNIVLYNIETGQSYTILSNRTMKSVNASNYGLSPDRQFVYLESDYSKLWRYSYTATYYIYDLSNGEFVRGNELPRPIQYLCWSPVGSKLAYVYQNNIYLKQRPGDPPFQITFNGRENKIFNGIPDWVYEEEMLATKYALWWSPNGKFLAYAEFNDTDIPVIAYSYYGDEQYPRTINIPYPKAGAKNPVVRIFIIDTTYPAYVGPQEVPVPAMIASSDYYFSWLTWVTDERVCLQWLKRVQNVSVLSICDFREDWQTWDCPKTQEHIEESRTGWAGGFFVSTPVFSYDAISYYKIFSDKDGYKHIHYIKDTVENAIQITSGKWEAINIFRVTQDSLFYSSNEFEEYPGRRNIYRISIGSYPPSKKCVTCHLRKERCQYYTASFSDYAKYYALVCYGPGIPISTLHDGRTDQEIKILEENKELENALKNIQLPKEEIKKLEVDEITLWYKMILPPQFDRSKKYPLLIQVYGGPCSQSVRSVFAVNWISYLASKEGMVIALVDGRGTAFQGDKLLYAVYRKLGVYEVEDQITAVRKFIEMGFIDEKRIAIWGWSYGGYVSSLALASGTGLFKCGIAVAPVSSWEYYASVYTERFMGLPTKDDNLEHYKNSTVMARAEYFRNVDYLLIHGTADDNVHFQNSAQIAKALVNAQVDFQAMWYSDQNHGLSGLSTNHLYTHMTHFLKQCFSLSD
Procedure: as §1, §2, §3, §4, §5

T3 sequence (Q86TI2 whole entry): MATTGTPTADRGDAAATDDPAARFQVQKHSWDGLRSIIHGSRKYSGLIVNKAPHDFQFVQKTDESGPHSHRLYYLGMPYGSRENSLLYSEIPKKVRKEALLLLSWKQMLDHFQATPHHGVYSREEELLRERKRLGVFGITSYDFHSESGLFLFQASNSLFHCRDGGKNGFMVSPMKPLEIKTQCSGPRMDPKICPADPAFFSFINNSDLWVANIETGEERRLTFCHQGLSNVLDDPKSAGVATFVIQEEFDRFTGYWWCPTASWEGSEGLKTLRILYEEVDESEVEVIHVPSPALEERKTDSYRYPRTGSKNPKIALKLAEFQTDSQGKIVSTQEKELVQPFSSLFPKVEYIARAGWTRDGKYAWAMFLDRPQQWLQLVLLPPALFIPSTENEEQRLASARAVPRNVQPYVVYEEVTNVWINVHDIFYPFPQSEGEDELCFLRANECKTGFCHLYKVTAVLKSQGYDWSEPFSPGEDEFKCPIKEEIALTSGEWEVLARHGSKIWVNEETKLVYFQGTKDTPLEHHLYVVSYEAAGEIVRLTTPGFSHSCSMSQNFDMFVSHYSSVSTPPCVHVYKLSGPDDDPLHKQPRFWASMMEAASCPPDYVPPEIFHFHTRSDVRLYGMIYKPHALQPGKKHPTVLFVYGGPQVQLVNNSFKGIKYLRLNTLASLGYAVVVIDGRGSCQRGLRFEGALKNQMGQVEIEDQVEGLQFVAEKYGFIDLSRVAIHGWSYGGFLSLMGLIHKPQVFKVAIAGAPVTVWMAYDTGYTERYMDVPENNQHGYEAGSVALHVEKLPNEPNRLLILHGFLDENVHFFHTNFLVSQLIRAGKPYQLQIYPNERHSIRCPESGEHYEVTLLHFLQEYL
T2 sequence (Q6V1X1 whole entry): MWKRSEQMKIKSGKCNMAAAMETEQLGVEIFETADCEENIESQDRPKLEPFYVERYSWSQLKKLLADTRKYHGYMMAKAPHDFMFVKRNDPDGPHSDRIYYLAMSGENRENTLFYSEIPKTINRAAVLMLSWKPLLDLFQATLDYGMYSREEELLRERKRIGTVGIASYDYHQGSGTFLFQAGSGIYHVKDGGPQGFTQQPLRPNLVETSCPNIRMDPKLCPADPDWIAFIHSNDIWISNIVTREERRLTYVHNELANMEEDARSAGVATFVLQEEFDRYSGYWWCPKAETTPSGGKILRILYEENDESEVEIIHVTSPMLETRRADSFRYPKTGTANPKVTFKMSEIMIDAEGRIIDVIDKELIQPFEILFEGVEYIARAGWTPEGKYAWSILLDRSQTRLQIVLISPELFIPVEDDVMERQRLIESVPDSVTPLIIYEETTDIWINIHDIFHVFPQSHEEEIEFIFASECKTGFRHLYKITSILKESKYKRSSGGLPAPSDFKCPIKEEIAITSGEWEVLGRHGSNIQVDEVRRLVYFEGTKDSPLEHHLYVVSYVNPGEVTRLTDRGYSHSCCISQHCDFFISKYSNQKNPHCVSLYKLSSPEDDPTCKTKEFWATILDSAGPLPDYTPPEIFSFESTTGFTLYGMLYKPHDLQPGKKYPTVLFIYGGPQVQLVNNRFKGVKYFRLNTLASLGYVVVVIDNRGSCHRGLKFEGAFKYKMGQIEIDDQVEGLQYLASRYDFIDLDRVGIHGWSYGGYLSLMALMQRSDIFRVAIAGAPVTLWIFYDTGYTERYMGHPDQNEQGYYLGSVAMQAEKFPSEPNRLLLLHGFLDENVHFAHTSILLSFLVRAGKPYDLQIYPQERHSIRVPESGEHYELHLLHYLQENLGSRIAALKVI

| Compound | Selectivity Ratios DPP-VII (human DPP-VII) | Selectivity Ratios DPP-VIII (human DPP-VIII) | Selectivity Ratios DPP-IX (human DPP-IX) | Selectivity Ratios FAP (human FAP) |
| --- | --- | --- | --- | --- |
| Cl.N#C[C@@H]1CS[C@H]2C[C@](N)(c3ccc(F)cc3)C(=O)N12 [Compound 30, 6-Amino-6-(4-fluoro-phenyl)-5-oxo-hexahydro-pyrrolo[2,1-b]thiazole-3-carbonitrile hydrochloride] | B (10 < B < 100) | B (10 < B < 100) | A (A ≦ 10) | B (10 < B < 100) |
| Cl.N#C[C@@H]1CS[C@H]2C[C@@H](N)C(=O)N12 [Compound 7, 6-Amino-5-oxo-hexahydro-pyrrolo[2,1-b]thiazole-3-carbonitrile] | C (C ≧ 100) | B (10 < B < 100) | A (A ≦ 10) | C (C ≧ 100) |
| N#CC1CSC2CC(N)(Cc3ccccc3)C(=O)N12 (centres unmarked) [Compound 28, 6-Amino-6-benzyl-5-oxo-hexahydro-pyrrolo[2,1-b]thiazole-3-carbonitrile hydrochloride] | B (10 < B < 100) | B (10 < B < 100) | B (10 < B < 100) | B (10 < B < 100) |
| Cl.N#C[C@@H]1CS[C@H]2C[C@@](N)(c3ccccc3)C(=O)N12 [Compound 34] | C (C ≧ 100) | B (10 < B < 100) | A (A ≦ 10) | C (C ≧ 100) |
| Cl.N#C[C@@H]1CS[C@H]2C[C@](N)(C3CCCCC3)C(=O)N12 [Compound 24, 6-Amino-6-cyclohexyl-5-oxo-hexahydro-pyrrolo[2,1-b]thiazole-3-carbonitrile hydrochloride] | B (10 < B < 100) | A (A ≦ 10) | A (A ≦ 10) | C (C ≧ 100) |
| Cl.N#C[C@@H]1CS[C@H]2C[C@](N)(C3CCCC3)C(=O)N12 [Compound 23, 6-Amino-6-cyclopentyl-5-oxo-hexahydro-pyrrolo[2,1-b]thiazole-3-carbonitrile hydrochloride] | B (10 < B < 100) | A (A ≦ 10) | A (A ≦ 10) | C (C ≧ 100) |
| CC(C)C[C@@]1(N)C[C@@H]2SC[C@@H](C#N)N2C1=O.Cl [Compound 25, 6-Amino-6-isobutyl-5-oxo-hexahydro-pyrrolo[2,1-b]thiazole-3-carbonitrile hydrochloride] | A (A ≦ 10) | B (10 < B < 100) | A (A ≦ 10) | C (C ≧ 100) |
| CC[C@H](C)[C@@]1(N)C[C@@H]2SC[C@@H](C#N)N2C1=O.Cl [Compound 26, 6-Amino-6-sec-butyl-5-oxo-hexahydro-pyrrolo[2,1-b]thiazole-3-carbonitrile hydrochloride] | B (10 < B < 100) | B (10 < B < 100) | A (A ≦ 10) | C (C ≧ 100) |
| Cl.N#C[C@@H]1CS[C@H]2C[C@@](N)(C3CCCC3)C(=O)N12 [Compound 33] | B (10 < B < 100) | B (10 < B < 100) | A (A ≦ 10) | B (10 < B < 100) |
| Cl.N#C[C@@H]1CS[C@H]2C[C@](N)(CCc3ccccc3)C(=O)N12 [Compound 27, 6-Amino-5-oxo-6-phenethyl-hexahydro-pyrrolo[2,1-b]thiazole-3-carbonitrile hydrochloride] | A (A ≦ 10) | A (A ≦ 10) | A (A ≦ 10) | B (10 < B < 100) |
| Cl.N#C[C@@H]1CS[C@H]2C[C@](N)(c3ccccc3)C(=O)N12 [Compound 31, 6-Amino-5-oxo-6-phenyl-hexahydro-pyrrolo[2,1-b]thiazole-3-carbonitrile hydrochloride] | C (C ≧ 100) | C (C ≧ 100) | B (10 < B < 100) | C (C ≧ 100) |
| Cl.N#C[C@@H]1CS[C@H]2C[C@](N)(CC3CCCCC3)C(=O)N12 [Compound 29, 6-Amino-6-cyclohexylmethyl-5-oxo-hexahydro-pyrrolo[2,1-b]thiazole-3-carbonitrile hydrochloride] | A (A ≦ 10) | A (A ≦ 10) | A (A ≦ 10) | C (C ≧ 100) |
| CC(C)[C@@]1(N)C[C@@H]2SC[C@@H](C#N)N2C1=O.Cl [Compound 22, 6-Amino-6-isopropyl-5-oxo-hexahydro-pyrrolo[2,1-b]thiazole-3-carbonitrile hydrochloride] | C (C ≧ 100) | B (10 < B < 100) | A (A ≦ 10) | C (C ≧ 100) |
| CC[C@@]1(N)C[C@@H]2SC[C@@H](C#N)N2C1=O.Cl [Compound 21, 6-Amino-6-ethyl-5-oxo-hexahydro-pyrrolo[2,1-b]thiazole-3-carbonitrile hydrochloride] | C (C ≧ 100) | B (10 < B < 100) | A (A ≦ 10) | C (C ≧ 100) |
